Measurements reported in patent US20230227449A1, “AMIDOPYRIMIDONE DERIVATIVES” (Hoffmann-La Roche Inc., priority 2020, published 2023).

Target: Recombinant human Mat2a (Homo sapiens, UniProt P31153)
Experiment: Determination of Mat2A activity (384 well absorbance-based assay, Biomol Green)
Type: biochemical
Details: 12.5 nM Mat2A, 100 μM ATP and Methionine, 2% DMSO, 120 minutes at RT, absorbance at 635 nm
Description: Determination of Mat2A activity
Measurement of Mat2A inhibition is performed in 384 well format absorbance-based assay. Recombinant human Mat2a (12.5 nM) and serial diluted compounds in DMSO (range of concentrations from […] to 508 pM) or controls (DMSO) are incubated for 15 minutes at room temperature (RT) in assay buffer containing 50 mM HEPES pH 7.5, 50 mM KCl, 50 mM MgCl2, 0.01% Tween 20 and 10 mM DTT. The reaction is initiated by the addition of the combined substrates ATP and Methionine, each at a final concentration of 100 μM. Final assay condition are 12.5 nM Mat2A, 100 μM ATP and Methionine Substrates and 2% DMSO. After 120 minutes of incubation at RT, the reaction is stopped by the addition of Biomol Green. The absorbance signal is measured at λ=635 nm with a multiplate reader (BMG Pherastar reader or equivalent) after 30 min of equilibration at RT.

Recombinant human Mat2a, sequence (P31153 whole entry): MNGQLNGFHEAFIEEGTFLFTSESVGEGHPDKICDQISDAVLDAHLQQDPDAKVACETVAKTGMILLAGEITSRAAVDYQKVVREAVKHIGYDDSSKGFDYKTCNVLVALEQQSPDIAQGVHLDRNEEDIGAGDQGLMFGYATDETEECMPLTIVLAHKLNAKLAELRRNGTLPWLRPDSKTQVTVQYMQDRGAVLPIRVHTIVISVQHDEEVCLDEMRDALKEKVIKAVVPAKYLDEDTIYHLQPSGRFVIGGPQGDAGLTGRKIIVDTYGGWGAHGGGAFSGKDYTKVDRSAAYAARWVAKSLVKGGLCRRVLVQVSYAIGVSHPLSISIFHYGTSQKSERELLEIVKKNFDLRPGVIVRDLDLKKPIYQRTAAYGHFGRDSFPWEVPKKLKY

| SMILES | IC50 [nM] |
| --- | --- |
| Nc1nc(=O)n(-c2cccnc2Cl)c2nc(C3CC3)ccc12 (single isomer, unassigned) [Example 135, (+)-4-amino-1-(2-chloropyridin-3-yl)-7-cyclopropylpyrido[2,3-d]pyrimidin-2 (1H)-one] | < 13 |
| Nc1nc(=O)n(-c2cccnc2Cl)c2nc(C3CC3)ccc12 (single isomer, unassigned) [Example 136, (−)-4-amino-1-(2-chloropyridin-3-yl)-7-cyclopropylpyrido[2,3-d]pyrimidin-2 (1H)-one] | 150 |
| Cc1c(C#N)cccc1-n1c(=O)nc(N)c2ccc(C3CC3)nc21 (single isomer, unassigned) [Example 145, (+)-3-(4-amino-7-cyclopropyl-2-oxopyrido[2,3-d]pyrimidin-1 (2H)-yl)-2-methylbenzonitrile] | < 13 |
| Cc1c(C#N)cccc1-n1c(=O)nc(N)c2ccc(C3CC3)nc21 (single isomer, unassigned) [Example 146, (−)-3-(4-amino-7-cyclopropyl-2-oxopyrido[2,3-d]pyrimidin-1 (2H)-yl)-2-methylbenzonitrile] | 58 |
| Cc1ccccc1-n1c(=O)nc(N)c2ccc(C3CC3)nc21 [Example 1, 4-amino-7-cyclopropyl-1-(o-tolyl)pyrido[2,3-d]pyrimidin-2(1H)-one] | < 13 |
| COc1ccccc1-n1c(=O)nc(N)c2ccc(C3CC3)nc21 [Example 2, 4-amino-7-cyclopropyl-1-(2-methoxyphenyl)pyrido[2,3-d]pyrimidin-2(1H)-one] | < 13 |
| Cc1ccccc1-n1c(=O)nc(N)c2ccc(C(C)(C)C)nc21 [Example 3, 4-amino-7-(tert-butyl)-1-(o-tolyl)pyrido[2,3-d]pyrimidin-2(1H)-one] | 22 |
| COc1ccccc1-n1c(=O)nc(N)c2ccc(-c3ccccc3)nc21 [Example 4, 4-amino-1-(2-methoxyphenyl)-7-phenylpyrido[2,3-d]pyrimidin-2(1H)-one] | 31 |
| Cc1ccccc1-n1c(=O)nc(N)c2ccc(N3CC(F)(F)C3)nc21 [Example 5, 4-amino-7-(3,3-difluoroazetidin-1-yl)-1-(o-tolyl)pyrido[2,3-d]pyrimidin-2(1H)-one] | 22 |
| Nc1nc(=O)n(C2CCOC2)c2nc(C3CC3)ccc12 (stereo not drawn) [Example 6, 4-amino-7-cyclopropyl-1-(tetrahydrofuran-3-yl)pyrido[2,3-d]pyrimidin-2(1H)-one] | 28 |
| Cc1ncccc1-n1c(=O)nc(N)c2ccc(C3CC3)nc21 [Example 7, 4-amino-7-cyclopropyl-1-(2-methylpyridin-3-yl)pyrido[2,3-d]pyrimidin-2(1H)-one] | < 13 |
| Cc1ccccc1-n1c(=O)nc(N)c2ccc(C3CC3)cc21 [Example 8, 4-amino-7-cyclopropyl-1-(o-tolyl)quinazolin-2 (1H)-one] | < 13 |
| COc1ncccc1-n1c(=O)nc(N)c2ccc(C3CC3)nc21 [Example 9, 4-amino-7-cyclopropyl-1-(2-methoxypyridin-3-yl)pyrido[2,3-d]pyrimidin-2(1H)-one] | < 13 |
| Cc1ncccc1-n1c(=O)nc(N)c2cc(F)c(C3CC3)nc21 [Example 10, 4-amino-7-cyclopropyl-6-fluoro-1-(2-methylpyridin-3-yl)pyrido[2,3-d]pyrimidin-2(1H)-one] | < 13 |
| N#Cc1ncccc1-n1c(=O)nc(N)c2ccc(C3CC3)nc21 [Example 11, 3-(4-amino-7-cyclopropyl-2-oxopyrido[2,3-d]pyrimidin-1(2H)-yl)picolinonitrile] | < 13 |
| Nc1nc(=O)n(C2CCCOC2)c2nc(C3CC3)ccc12 (stereo not drawn) [Example 12, 4-amino-7-cyclopropyl-1-(oxan-3-yl)pyrido[2,3-d]pyrimidin-2-one] | < 13 |
| CC(C1CCOC1)n1c(=O)nc(N)c2ccc(C3CC3)nc21 (stereo not drawn) [Example 13, 4-amino-7-cyclopropyl-1-[1-(oxolan-3-yl)ethyl]pyrido[2,3-d]pyrimidin-2-one] | 23 |
| COc1c(F)cccc1-n1c(=O)nc(N)c2ccc(C3CC3)nc21 [Example 14, 4-amino-7-cyclopropyl-1-(3-fluoro-2-methoxyphenyl)pyrido[2,3-d]pyrimidin-2(1H)-one] | 27 |
| Cc1c(C#N)cccc1-n1c(=O)nc(N)c2ccc(C3CC3)nc21 [Example 15, 3-(4-amino-7-cyclopropyl-2-oxopyrido[2,3-d]pyrimidin-1(2H)-yl)-2-methylbenzonitrile] | < 13 |
| Cc1ncccc1-n1c(=O)nc(N)c2ccc(C(C)C)nc21 [Example 16, 4-amino-1-(2-methylpyridin-3-yl)-7-propan-2-ylpyrido[2,3-d]pyrimidin-2-one] | < 13 |
| Nc1nc(=O)n(-c2cccc3c2CCO3)c2nc(C3CC3)ccc12 [Example 17, 4-amino-7-cyclopropyl-1-(2,3-dihydrobenzofuran-4-yl)pyrido[2,3-d]pyrimidin-2(1H)-one] | 95 |

| SMILES | IC50 [nM] |
| --- | --- |
| Cc1ncccc1-n1c(=O)nc(N)c2cc(Cl)c(C3CC3)nc21 [Example 18, 4-amino-6-chloro-7-cyclopropyl-1-(2-methylpyridin-3-yl)pyrido[2,3-d]pyrimidin-2(1H)-one] | < 13 |
| COc1c(C#N)cccc1-n1c(=O)nc(N)c2ccc(C3CC3)nc21 [Example 19, 3-(4-amino-7-cyclopropyl-2-oxopyrido[2,3-d]pyrimidin-1(2H)-yl)-2-methoxybenzonitrile] | < 13 |
| CCOc1c(C#N)cccc1-n1c(=O)nc(N)c2ccc(C3CC3)nc21 [Example 20, 3-(4-amino-7-cyclopropyl-2-oxopyrido[2,3-d]pyrimidin-1(2H)-yl)-2-ethoxybenzonitrile] | 15 |
| CC(C1CCCO1)n1c(=O)nc(N)c2ccc(C3CC3)nc21 (stereo not drawn) [Example 21, 4-amino-7-cyclopropyl-1-(1-(tetrahydrofuran-2-yl)ethyl)pyrido[2,3-d]pyrimidin-2(1H)-one] | 86 |
| Cc1ncccc1-n1c(=O)nc(N)c2ccc(C3COC3)cc21 [Example 22, 4-amino-1-(2-methylpyridin-3-yl)-7-(oxetan-3-yl)quinazolin-2(1H)-one] | 21 |
| Cc1c(F)cccc1-n1c(=O)nc(N)c2ccc(C3CC3)nc21 [Example 25, 4-amino-7-cyclopropyl-1-(3-fluoro-2-methylphenyl)pyrido[2,3-d]pyrimidin-2(1H)-one] | < 13 |
| Nc1nc(=O)n([C@@H]2CCCOC2)c2nc(C3CC3)ccc12 [Example 26, 4-amino-7-cyclopropyl-1-[(3R)-oxan-3-yl]pyrido[2,3-d]pyrimidin-2-one] | < 13 |
| Nc1nc(=O)n([C@H]2CCCOC2)c2nc(C3CC3)ccc12 [Example 27, 4-amino-7-cyclopropyl-1-[(3S)-oxan-3-yl]pyrido[2,3-d]pyrimidin-2-one] | 42 |
| CC1COCC1n1c(=O)nc(N)c2ccc(C3CC3)nc21 (stereo not drawn) [Example 28, 4-amino-7-cyclopropyl-1-(4-methyltetrahydro-furan-3-yl)pyrido[2,3-d]pyrimidin-2(1H)-one] | 57 |
| Cc1ncccc1-n1c(=O)nc(N)c2ccc(C(F)(F)F)cc21 [Example 29, 4-amino-1-(2-methylpyridin-3-yl)-7-(trifluoromethyl)quinazolin-2-one] | < 13 |
| Cc1ncccc1-n1c(=O)nc(N)c2ccc(OC3CC3)cc21 [Example 31, 4-amino-7-cyclopropyloxy-1-(2-methylpyridin-3-yl)quinazolin-2-one] | 18 |
| Cc1ncccc1-n1c(=O)nc(N)c2ccc(C(F)(F)F)nc21 [Example 32, 4-amino-1-(2-methylpyridin-3-yl)-7-(trifluoromethyl)pyrido[2,3-d]pyrimidin-2(1H)-one] | < 13 |
| Nc1nc(=O)n(C2CCC(O)C2)c2nc(C3CC3)ccc12 (stereo not drawn) [Example 33, 4-amino-7-cyclopropyl-1-(3-hydroxycyclopentyl)pyrido[2,3-d]pyrimidin-2(1H)-one] | < 13 |
| Cc1ncccc1-n1c(=O)nc(N)c2ccc(OC(F)F)cc21 [Example 34] | < 13 |
| Cc1ncccc1-n1c(=O)nc(N)c2ccc(C(F)F)cc21 [Example 35, 4-amino-7-(difluoromethyl)-1-(2-methylpyridin-3-yl)quinazolin-2(1H)-one] | < 13 |
| Cc1ncccc1-n1c(=O)nc(N)c2cc(C#N)c(C3CC3)nc21 [Example 37, 4-amino-7-cyclopropyl-1-(2-methylpyridin-3-yl)-2-oxo-1,2-dihydropyrido[2,3-d]pyrimidine-6-carbonitrile] | 15 |
| COc1c(C#N)cccc1-n1c(=O)nc(N)c2ccc(C(C)C)nc21 [Example 38, 3-(4-amino-7-isopropyl-2-oxopyrido[2,3-d]pyrimidin-1(2H)-yl)-2-methoxybenzonitrile] | < 13 |
| COc1ccc2c(N)nc(=O)n(-c3cccnc3C)c2c1 [Example 39, 4-amino-7-methoxy-1-(2-methylpyridin-3-yl)quinazolin-2(1H)-one] | < 13 |
| Cc1ncccc1-n1c(=O)nc(N)c2ccc(OC(F)(F)F)cc21 [Example 40, 4-amino-1-(2-methylpyridin-3-yl)-7-(trifluoromethoxy)quinazolin-2(1H)-one] | < 13 |
| Cc1ncccc1-n1c(=O)nc(N)c2ccc(C3=COCC3)nc21 [Example 41, 4-amino-7-(4,5-dihydrofuran-3-yl)-1-(2-methylpyridin-3-yl)pyrido[2,3-d]pyrimidin-2 (1H)-one] | 45 |
| Cc1ncncc1-n1c(=O)nc(N)c2ccc(C3CC3)nc21 [Example 42, 4-amino-7-cyclopropyl-1-(4-methylpyrimidin-5-yl)pyrido[2,3-d]pyrimidin-2(1H)-one] | < 13 |
